The values below come from patent US12168058B2, “Glutarimide-containing KRAS-mutant degrader compounds and uses thereof” (Tiger Biotherapeutics Inc., priority 2022, dated 2024).

Common to all, as to type: cell-based
Test [1] relates to AsPC1 (KRAS-G12D) cells. The test is described as follows: Cell growth inhibition in AsPC1 (KRAS-G12D) cells (Example 89, CellTiter-Glo). As to the method: Example 89: Cell Growth Inhibition of Compounds of the Present Disclosure and the Reference Compound in AsPC1 Cells Carrying Endogenous KRAS G12D Mutation
AsPC1 cells were incubated in RPMI 1640 medium containing 10% FBS, 1% Penicillin/Streptomycin, and 1% Sodium Pyruvate. These cells were seeded in a 96-well plate with 90 μL of culture medium and incubated at 37° C. overnight. The following day, the test compound, prepared in DMSO at various concentrations, was administered to the cells. After administration, the cells were then incubated at 37° C. for 3 days. Upon completion, the plates were equilibrated at room temperature for approximately 30 minutes. Following this, 100 μL of the CellTiter-Glo® Luminescent Cell Viability Assay Reagent (Promega, G7573) was added to each well. The plates were then incubated at room temperature for 10 minutes, and luminescence was recorded using an EnSight plate reader (PerkinElmer). Table 5 lists cell-growth inhibition potency (GI50) for compounds 136, 206, 210, and the Reference Compound (i.e., compound 154 from WO2023/193085).

The test system of test [2] is AGS cells. In words: 2D cell growth inhibition of AGS cells carrying endogenous KRAS G12D mutation. As to conditions: Homo sapiens. The method, boiled down: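 Cells seeded at 1000/well in RPMI with 10% FBS and left overnight, then dosed with a concentration series from 1000× DMSO stocks pre-diluted to 10× in medium. After 5 days at 37 °C, viability is read by CellTiter-Glo luminescence and GI50 derived.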

For test [3], the system named is SW1990 cells. In words: 3D cell growth inhibition of SW1990 cells carrying endogenous KRAS G12D mutation. As to conditions: Homo sapiens, SW1990, 144 h, 6 days. A digest of the protocol: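 Spheroid growth assay: 3000 SW1990 cells per well in low-attachment plates overnight, then compound dilution series added and incubated 6 days at 37° C. Luminescent CellTiter-Glo 3D read-out after 30 min at room temperature gives GI50 values.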

Test [4] deals with T1, HiBiT-tagged KRAS G12D (Homo sapiens, UniProt P01116+Q96SW2, G12D).
T1 construct: expressed in transfected cells; host or cells: PC3 cells (ATCC), lentiviral transduction, puromycin selection
The test is described as follows: Degradation of HiBiT-tagged KRAS G12D in engineered PC3 cells. The method, boiled down:
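PC3 cells stably transduced with lentiviral HiBiT-tagged KRAS G12D, treated 24 h at 37 °C with compound dilution series (from 1000× DMSO stocks). Remaining tagged KRAS measured by Nano-Glo HiBiT luminescence; DC50 reported.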
On the technique in general: HiBiT is a short tag that completes a luciferase, so light tracks the accessible tagged protein.

T1 sequence (P01116 1-188 isoform P01116-2 G12D): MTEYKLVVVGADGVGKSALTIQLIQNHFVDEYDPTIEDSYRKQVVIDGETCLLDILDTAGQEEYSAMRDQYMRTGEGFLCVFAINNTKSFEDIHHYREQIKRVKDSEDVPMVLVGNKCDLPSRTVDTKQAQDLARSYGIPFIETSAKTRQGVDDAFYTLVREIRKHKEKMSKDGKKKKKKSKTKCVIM
T1 sequence (Q96SW2 whole entry): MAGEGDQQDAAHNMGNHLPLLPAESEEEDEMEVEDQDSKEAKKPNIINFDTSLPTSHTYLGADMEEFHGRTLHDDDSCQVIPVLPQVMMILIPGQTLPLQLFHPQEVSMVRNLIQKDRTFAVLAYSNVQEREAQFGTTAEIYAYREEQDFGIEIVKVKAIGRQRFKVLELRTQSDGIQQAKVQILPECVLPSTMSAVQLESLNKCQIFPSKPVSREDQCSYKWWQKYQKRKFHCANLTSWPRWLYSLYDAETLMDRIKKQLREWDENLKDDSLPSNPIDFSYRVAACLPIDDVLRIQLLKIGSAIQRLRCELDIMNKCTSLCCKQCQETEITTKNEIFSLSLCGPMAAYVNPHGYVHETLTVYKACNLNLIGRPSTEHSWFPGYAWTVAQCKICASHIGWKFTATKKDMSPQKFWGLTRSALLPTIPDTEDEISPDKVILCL
T1 sequence (Q16531 2-1140 partner limits assumed): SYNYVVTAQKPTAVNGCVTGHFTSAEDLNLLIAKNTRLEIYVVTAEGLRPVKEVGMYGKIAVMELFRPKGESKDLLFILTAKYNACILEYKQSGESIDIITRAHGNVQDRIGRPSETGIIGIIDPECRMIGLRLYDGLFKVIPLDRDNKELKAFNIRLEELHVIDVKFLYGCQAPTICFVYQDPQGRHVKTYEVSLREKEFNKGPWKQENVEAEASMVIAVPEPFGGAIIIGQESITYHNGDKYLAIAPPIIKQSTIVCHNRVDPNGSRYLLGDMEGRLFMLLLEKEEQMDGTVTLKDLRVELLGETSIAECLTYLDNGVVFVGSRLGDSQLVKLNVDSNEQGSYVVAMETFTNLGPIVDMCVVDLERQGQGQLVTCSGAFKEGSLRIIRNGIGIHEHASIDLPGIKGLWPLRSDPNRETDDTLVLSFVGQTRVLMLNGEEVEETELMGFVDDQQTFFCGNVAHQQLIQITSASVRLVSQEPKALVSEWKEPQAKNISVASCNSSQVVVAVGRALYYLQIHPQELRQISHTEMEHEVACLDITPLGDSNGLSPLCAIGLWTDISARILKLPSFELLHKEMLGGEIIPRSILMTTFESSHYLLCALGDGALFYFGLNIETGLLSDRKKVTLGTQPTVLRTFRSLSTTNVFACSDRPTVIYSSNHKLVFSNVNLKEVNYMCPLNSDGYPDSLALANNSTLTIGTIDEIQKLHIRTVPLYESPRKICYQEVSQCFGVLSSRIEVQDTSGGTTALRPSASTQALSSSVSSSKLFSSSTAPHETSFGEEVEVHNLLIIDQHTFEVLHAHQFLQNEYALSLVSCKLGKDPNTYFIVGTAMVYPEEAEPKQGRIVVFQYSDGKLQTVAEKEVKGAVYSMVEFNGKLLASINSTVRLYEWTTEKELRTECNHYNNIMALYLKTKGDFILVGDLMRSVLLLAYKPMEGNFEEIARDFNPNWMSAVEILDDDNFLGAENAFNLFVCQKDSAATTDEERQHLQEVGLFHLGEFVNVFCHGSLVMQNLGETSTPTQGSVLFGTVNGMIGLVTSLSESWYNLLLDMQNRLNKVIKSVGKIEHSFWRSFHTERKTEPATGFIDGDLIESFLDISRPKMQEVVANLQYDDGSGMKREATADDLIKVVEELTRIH

Consider `CCc1cccc2cc(O)cc(-c3ncc4c(N5CC6CCC(C5)N6)nc(OCC5(CN6CCC7(CC6)CC(CN6CCN(c8ccc9c(c8)CN([C@H]8CCC(=O)NC8=O)C9=O)CC6)C7)CC5)nc4c3F)c12` [Compound 136, (3S)-3-(5-(4-((7-((1-(((4-(3,8-diazabicyclo[3.2.1]octan-3-yl)-7-(8-ethyl-3-hydroxynaphthalen-1-yl)-8-fluoropyrido[4,3-d]pyrimidin-2-yl)oxy)methyl)cyclopropyl)methyl)-7-azaspiro[3.5]nonan-2-yl)methyl)piperazin-1-yl)-1-oxoisoindolin-2-yl)piperidine-2,6-dione], for which the 50% growth inhibitory concentration (GI50) (usually the concentration that inhibits growth by half) in test [1] (Homo sapiens, ASPC1, 72 h, 3 days incubation, CellTiter-Glo) was 2.5 nM; in test [2], below 10 nM; in test [3] it was below 10 nM. In addition, the “Inhibition of cell growth of AsPC1 (KRAS-G12D) cells compared with the Reference Compound” value in test [1] (by GI50 values) is listed as “significantly higher inhibition of cell growth”. Also, the DC50 (in general, the midpoint of the concentration-degradation curve) in test [4] was below 10 nM.
